Test results from ChEMBL document CHEMBL1201862, “PubChem BioAssay data set” (2004).
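Compound exposure: 48 hours, 5 concentrations, 96-well plates. Abbreviation: GI50, concentration required for 50% inhibition of growth.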 Activity calls are given as the source filed them. Cut-off read from the data, not from the text of the source: active = GI50 up to about 1.1 µM and inactive = higher.

Columns and labels:
Experiment in all cases: growth of human tumour cells (NCI), 48 h
KM12 = tested on: KM12
UACC-257 = tested on: UACC-257
SK-OV-3 = tested on: SK-OV-3
M19-MEL = tested on: M19-MEL
U-251 = tested on: U-251
HCC 2998 = tested on: HCC 2998
SF-268 = tested on: SF-268
EKVX = tested on: EKVX
SNB-78 = tested on: SNB-78
SF-295 = tested on: SF-295
SK-MEL-5 = tested on: SK-MEL-5
HCT-116 = tested on: HCT-116
NCI-H23 = tested on: NCI-H23
MOLT-4 = tested on: MOLT-4
SK-MEL-28 = tested on: SK-MEL-28
HOP-18 = tested on: HOP-18
LXFL 529 = tested on: LXFL 529
HOP-92 = tested on: HOP-92
M14 = tested on: M14
DLD-1 = tested on: DLD-1
UO-31 = tested on: UO-31
A498 = tested on: A498
CCRF-CEM = tested on: CCRF-CEM
NCI-H460 = tested on: NCI-H460
SW-620 = tested on: SW-620
HCT-15 = tested on: HCT-15
ACHN = tested on: ACHN
CAKI-1 = tested on: CAKI-1
OVCAR-8 = tested on: OVCAR-8
SK-MEL-2 = tested on: SK-MEL-2
RXF 631 = tested on: RXF 631
HL-60 = tested on: HL-60
KM-20L2 = tested on: KM-20L2
OVCAR-4 = tested on: OVCAR-4
786-0 = tested on: 786-0
K562 = tested on: K562
HT-29 = tested on: HT-29
SF-539 = tested on: SF-539
IGROV-1 = tested on: IGROV-1
NCI-H226 = tested on: NCI-H226
UACC-62 = tested on: UACC-62
Malme-3M = tested on: Malme-3M
A549 = tested on: A549
SN12C = tested on: SN12C
HOP-62 = tested on: HOP-62
SR = tested on: SR
LOX IMVI = tested on: LOX IMVI
TK-10 = tested on: TK-10
SNB-19 = tested on: SNB-19
SNB-75 = tested on: SNB-75
RXF 393 = tested on: RXF 393
DMS-114 = tested on: DMS-114
DMS-273 = tested on: DMS-273
OVCAR-3 = tested on: OVCAR-3
OVCAR-5 = tested on: OVCAR-5
RPMI-8226 = tested on: RPMI-8226
DU-145 = tested on: DU-145
MDA-MB-231 = tested on: MDA-MB-231
XF498 = tested on: XF498
MDA-N = tested on: MDA-N
NCI-H522 = tested on: NCI-H522
BT-549 = tested on: BT-549
PC-3 = tested on: PC-3
Hs-578T = tested on: Hs-578T
COLO 205 = tested on: COLO 205
NCI/ADR-RES = tested on: NCI/ADR-RES
MCF7 = tested on: MCF7
MDA-MB-435 = tested on: MDA-MB-435

## C/C(=N\NC(=O)CC#N)c1c(O)cc(C)oc1=O
KM12
  GI50: > 100 µM (inactive)
UACC-257
  GI50: > 100 µM (inactive)
SK-OV-3
  GI50: > 100 µM (inactive)
M19-MEL
  GI50: > 100 µM (inactive)
U-251
  GI50: > 100 µM (inactive)
HCC 2998
  GI50: > 100 µM (inactive)
SF-268
  GI50: > 100 µM (inactive)
EKVX
  GI50: > 100 µM (inactive)
SNB-78
  GI50: > 100 µM (inactive)
SF-295
  GI50: > 100 µM (inactive)
SK-MEL-5
  GI50: > 100 µM (inactive)
HCT-116
  GI50: > 100 µM (inactive)
NCI-H23
  GI50: > 100 µM (inactive)
MOLT-4
  GI50: > 100 µM (inactive)
SK-MEL-28
  GI50: > 100 µM (inactive)
HOP-18
  GI50: > 100 µM (inactive)
LXFL 529
  GI50: > 100 µM (inactive)
HOP-92
  GI50: > 100 µM (inactive)
M14
  GI50: > 100 µM (inactive)
DLD-1
  GI50: > 100 µM (inactive)
UO-31
  GI50: > 100 µM (inactive)
A498
  GI50: > 100 µM (inactive)
CCRF-CEM
  GI50: > 100 µM (inactive)
NCI-H460
  GI50: > 100 µM (inactive)
SW-620
  GI50: > 100 µM (inactive)
HCT-15
  GI50: > 100 µM
ACHN
  GI50: > 100 µM (inactive)
CAKI-1
  GI50: > 100 µM (inactive)
OVCAR-8
  GI50: > 100 µM (inactive)
SK-MEL-2
  GI50: > 100 µM (inactive)
RXF 631
  GI50: > 100 µM (inactive)
HL-60
  GI50: > 100 µM (inactive)
KM-20L2
  GI50: > 100 µM (inactive)
OVCAR-4
  GI50: > 100 µM (inactive)
786-0
  GI50: > 100 µM (inactive)
K562
  GI50: > 100 µM (inactive)
HT-29
  GI50: > 100 µM (inactive)
SF-539
  GI50: > 100 µM (inactive)
IGROV-1
  GI50: > 100 µM (inactive)
NCI-H226
  GI50: > 100 µM (inactive)
UACC-62
  GI50: > 100 µM (inactive)
Malme-3M
  GI50: > 100 µM (inactive)
A549
  GI50: > 100 µM (inactive)
SN12C
  GI50: > 100 µM (inactive)
HOP-62
  GI50: > 100 µM (inactive)
SR
  GI50: > 100 µM (inactive)
LOX IMVI
  GI50: > 100 µM (inactive)
TK-10
  GI50: > 100 µM (inactive)
SNB-19
  GI50: > 100 µM (inactive)
SNB-75
  GI50: > 100 µM (inactive)

## C[C@]12CC[C@H](O)CC1=CC[C@@H]1C2CC[C@]2(C)Nc3c(cnn3-c3ccccc3)CC12 (stereo partly specified)
KM12
  GI50: 2.05 µM (inactive)
UACC-257
  GI50: 3.78 µM (inactive)
SK-OV-3
  GI50: 4.07 µM (inactive)
M19-MEL
  GI50: 5.35 µM (inactive)
U-251
  GI50: 2.36 µM (inactive)
HCC 2998
  GI50: 3.56 µM (inactive)
RXF 393
  GI50: 0.441 µM (active)
EKVX
  GI50: 6.07 µM (inactive)
SNB-78
  GI50: 8.2 µM (inactive)
SF-295
  GI50: 0.388 µM (active)
SK-MEL-5
  GI50: 3.24 µM (inactive)
HCT-116
  GI50: 3.01 µM (inactive)
NCI-H23
  GI50: 3.88 µM (inactive)
MOLT-4
  GI50: 1.5 µM (inactive)
SK-MEL-28
  GI50: 2.86 µM (inactive)
LXFL 529
  GI50: 4.06 µM (inactive)
M14
  GI50: 6.34 µM (inactive)
DLD-1
  GI50: 3.52 µM (inactive)
UO-31
  GI50: 5.51 µM (inactive)
DMS-114
  GI50: 2.82 µM (inactive)
A498
  GI50: 3.61 µM (inactive)
CCRF-CEM
  GI50: 3.01 µM (inactive)
NCI-H460
  GI50: 2.72 µM (inactive)
SW-620
  GI50: 2.6 µM (inactive)
HCT-15
  GI50: 2.23 µM
ACHN
  GI50: 3.26 µM (inactive)
DMS-273
  GI50: 0.869 µM (active)
CAKI-1
  GI50: 2.96 µM (inactive)
OVCAR-8
  GI50: 6.87 µM (inactive)
SK-MEL-2
  GI50: 9.73 µM (inactive)
RXF 631
  GI50: 0.44 µM (active)
HL-60
  GI50: 1.77 µM (inactive)
KM-20L2
  GI50: 1.38 µM (inactive)
OVCAR-3
  GI50: 5.9 µM (inactive)
OVCAR-4
  GI50: 7.23 µM (inactive)
786-0
  GI50: 1.56 µM (inactive)
K562
  GI50: 2.61 µM (inactive)
HT-29
  GI50: 1.89 µM (inactive)
SF-539
  GI50: 0.9 µM (active)
IGROV-1
  GI50: 7.05 µM (inactive)
NCI-H226
  GI50: 8.57 µM (inactive)
UACC-62
  GI50: 4.14 µM (inactive)
Malme-3M
  GI50: 4.35 µM (inactive)
A549
  GI50: 3.43 µM (inactive)
OVCAR-5
  GI50: 3.96 µM (inactive)
RPMI-8226
  GI50: 0.361 µM (active)
HOP-62
  GI50: 2.81 µM (inactive)
TK-10
  GI50: 9.48 µM (inactive)
SNB-75
  GI50: 1 µM (active)

## CCSc1nc(N2CCCC2)s[s+]1.[O-][Cl+3]([O-])([O-])[O-]
KM12
  GI50: 39.4 µM (inactive)
UACC-257
  GI50: 36.9 µM (inactive)
DU-145
  GI50: > 100 µM (inactive)
SK-OV-3
  GI50: 84.1 µM (inactive)
M19-MEL
  GI50: 2.3 µM (inactive)
U-251
  GI50: 56.4 µM (inactive)
HCC 2998
  GI50: 73.6 µM (inactive)
RXF 393
  GI50: 30.9 µM (inactive)
SF-268
  GI50: 40.2 µM (inactive)
EKVX
  GI50: 67.3 µM (inactive)
SNB-78
  GI50: 74.8 µM (inactive)
MDA-MB-231
  GI50: 44.6 µM (inactive)
SF-295
  GI50: 54.6 µM (inactive)
SK-MEL-5
  GI50: 0.08 µM (active)
XF498
  GI50: 31 µM (inactive)
HCT-116
  GI50: 28.4 µM (inactive)
NCI-H23
  GI50: 46.8 µM (inactive)
MOLT-4
  GI50: 3.29 µM (inactive)
SK-MEL-28
  GI50: 36.5 µM (inactive)
HOP-18
  GI50: > 100 µM (inactive)
LXFL 529
  GI50: 22.7 µM (inactive)
HOP-92
  GI50: 64.7 µM (inactive)
M14
  GI50: 25.4 µM (inactive)
MDA-N
  GI50: 16.3 µM (inactive)
DLD-1
  GI50: 85.3 µM (inactive)
UO-31
  GI50: 42.1 µM (inactive)
DMS-114
  GI50: 17.6 µM (inactive)
NCI-H522
  GI50: 0.346 µM (active)
A498
  GI50: 6.75 µM (inactive)
CCRF-CEM
  GI50: 0.764 µM (active)
NCI-H460
  GI50: 0.225 µM (active)
SW-620
  GI50: 34.4 µM (inactive)
HCT-15
  GI50: 27.4 µM
ACHN
  GI50: 54.3 µM (inactive)
BT-549
  GI50: 33 µM (inactive)
DMS-273
  GI50: 49.5 µM (inactive)
CAKI-1
  GI50: 43 µM (inactive)
OVCAR-8
  GI50: 39.3 µM (inactive)
PC-3
  GI50: 31.7 µM (inactive)
SK-MEL-2
  GI50: 60.7 µM (inactive)
HL-60
  GI50: 2.92 µM (inactive)
KM-20L2
  GI50: 55.6 µM (inactive)
Hs-578T
  GI50: 40.6 µM (inactive)
OVCAR-3
  GI50: 3.58 µM (inactive)
COLO 205
  GI50: 2.23 µM (inactive)
OVCAR-4
  GI50: 50.8 µM (inactive)
786-0
  GI50: 58.1 µM (inactive)
K562
  GI50: 1 µM (active)
HT-29
  GI50: 0.582 µM (active)
NCI/ADR-RES
  GI50: > 100 µM (inactive)
SF-539
  GI50: 43 µM (inactive)
IGROV-1
  GI50: 4.07 µM (inactive)
NCI-H226
  GI50: 63.4 µM (inactive)
UACC-62
  GI50: 0.684 µM (active)
Malme-3M
  GI50: 53.3 µM (inactive)
A549
  GI50: 18.9 µM (inactive)
SN12C
  GI50: 46.1 µM (inactive)
OVCAR-5
  GI50: > 100 µM (inactive)
MCF7
  GI50: 0.167 µM (active)
RPMI-8226
  GI50: 0.318 µM (active)
HOP-62
  GI50: 56.5 µM (inactive)
SR
  GI50: 1.04 µM (active)
LOX IMVI
  GI50: 19.1 µM (inactive)
TK-10
  GI50: 90.8 µM (inactive)
SNB-19
  GI50: > 100 µM (inactive)
MDA-MB-435
  GI50: 13.6 µM (inactive)
SNB-75
  GI50: 24.3 µM (inactive)
